Measured values as given in patent US7456133B2, “Substituted arylketones” (Bayer CropScience AG, priority 2001, dated 2008).

test: Log P by reversed-phase HPLC (C 18), acidic range; format: physicochemical; conditions: Table 1, labelled a): acidic range, 0.1% aqueous phosphoric acid/acetonitrile gradient, 43° C.
Description: Log P values given in the tables were determined in accordance with EEC Directive 79/831 Annex V.A8 by HPLC (High Performance Liquid Chromatography) using a reversed-phase column (C 18). Temperature: 43° C. (a) Mobile phases for the determination in the acidic range: 0.1% aqueous phosphoric acid, acetonitrile; linear gradient from 10% acetonitrile to 90% acetonitrile—the corresponding measurement results in Tables 1 and 2 are labelled^a).

SMILES	log P
CN(C)C(=O)N(C)Cc1c(Cl)ccc(C(=O)C2C(=O)CCCC2=O)c1Cl [Example I-2-61]	log P = 2.26^a)
CN(C)C(=O)N(C)Cc1c(Cl)ccc(C(=O)c2cnn(C)c2O)c1Cl [Example I-2-62]	log P = 1.48^a)
CNC(=S)N(C)Cc1c(S(C)(=O)=O)ccc(C(=O)C2C(=O)CCCC2=O)c1Cl [Example I-2-63]	log P = 1.81^a)
CNC(=S)N(C)Cc1c(S(C)(=O)=O)ccc(C(=O)c2cnn(C)c2O)c1Cl [Example I-2-64]	log P = 1.00^a)
Cn1ncc(C(=O)c2ccc(S(C)(=O)=O)c(CNC(N)=O)c2Cl)c1O [Example I-2-65]	log P = 0.30^a)
CCNC(=O)NCc1c(S(C)(=O)=O)ccc(C(=O)C2C(=O)CCCC2=O)c1Cl [Example I-2-66]	log P = 1.57^a)
O=C(NCCOc1c(Cl)ccc(C(=O)C2C(=O)CCCC2=O)c1Cl)C1CC1 [Example I-2-68]	log P = 2.28^a)
CC(C)OC(=O)NCCOc1c(Cl)ccc(C(=O)C2C(=O)CCCC2=O)c1Cl [Example I-2-69]	log P = 2.98^a)
CNC(=O)NCCOc1c(Cl)ccc(C(=O)C2C(=O)CCCC2=O)c1Cl [Example I-2-73]	log P = 1.84^a)
CNC(=S)NCCOc1c(Cl)ccc(C(=O)C2C(=O)CCCC2=O)c1Cl [Example I-2-75]	log P = 2.23^a)
Cc1ccccc1NC(=O)NCc1c(S(C)(=O)=O)ccc(C(=O)c2cnn(C)c2O)c1Cl [Example I-2-81]	log P = 1.58^a)
CN(C)C(=O)NCc1c(S(C)(=O)=O)ccc(C(=O)C2C(=O)CCCC2=O)c1Cl [Example I-2-82]	log P = 1.58^a)
CN(C)C(=O)NCc1c(S(C)(=O)=O)ccc(C(=O)c2cnn(C)c2O)c1Cl [Example I-2-83]	log P = 0.77^a)
Cn1ncc(C(=O)c2ccc(Cl)c(OCCNC(N)=O)c2Cl)c1O [Example I-2-118]	log P = 1.66^a)
Cn1ncc(C(=O)c2ccc(Cl)c(OCCNC(N)=O)c2Cl)c1O [Example I-2-119]	log P = 1.22^a)
Cc1ccccc1NC(=O)NCc1c(S(C)(=O)=O)ccc(C(=O)C2C(=O)CCCC2=O)c1Cl [Example I-2-140]	log P = 2.35^a)

same assay, conditions: reversed-phase HPLC (C 18), acidic range: 0.1% aqueous phosphoric acid, acetonitrile; 43° C.; labelled a)

SMILES	log P
CC(C)NC(=O)N(Cc1ccc(C(=O)C2C(=O)CCCC2=O)c([N+](=O)[O-])c1)C(C)C [Example I-3-5]	log P = 2.53^a)
CC(C)NC(=O)N(Cc1ccc(C(=O)c2cnn(C)c2O)c([N+](=O)[O-])c1)C(C)C [Example I-3-6]	log P = 1.64^a)
CC(C)N(Cc1ccc(C(=O)c2cnn(C)c2O)c([N+](=O)[O-])c1)C(=O)N(C)C [Example I-3-7]	log P = 1.63^a)
CCNC(=O)N(Cc1ccc(C(=O)C2C(=O)CCCC2=O)c([N+](=O)[O-])c1)c1ccccc1 [Example I-3-8]	log P = 2.60^a)
CCNC(=O)N(Cc1ccc(C(=O)c2cnn(C)c2O)c([N+](=O)[O-])c1)c1ccccc1 [Example I-3-9]	log P = 1.75^a)
CC(C)NC(=O)N(Cc1ccc(C(=O)C2C(=O)CCCC2=O)c([N+](=O)[O-])c1)c1ccccc1 [Example I-3-10]	log P = 2.94^a)
CC(C)NC(=O)N(Cc1ccc(C(=O)c2cnn(C)c2O)c([N+](=O)[O-])c1)c1ccccc1 [Example I-3-11]	log P = 2.05^a)
CNC(=O)N(C)Cc1ccc(C(=O)c2cnn(C)c2O)c([N+](=O)[O-])c1 [Example I-3-25]	log P = 0.68^a)
CC(C)N(Cc1ccc(C(=O)C2C(=O)CCCC2=O)c([N+](=O)[O-])c1)C(=O)Oc1ccccc1 [Example I-3-39]	log P = 3.53^a)
CC(C)N(Cc1ccc(C(=O)c2cnn(C)c2O)c([N+](=O)[O-])c1)C(=O)Oc1ccccc1 [Example I-3-40]	log P = 2.59^a)
